From patent publication US11752169B2, “Treatment of pain with polysulfated polysaccharides” (PARADIGM BIOPHARMACEUTICALS LTD., priority 2018, dated 2023)
“Also recorded” adds a separate entry of the source.

Key:
NGF = NGF immunostaining / confocal microscopy of osteocytes freshly isolated from human KOA bone; type: cell-based; conditions: osteocyte-enriched fractions of KOA bone digests, 24 h, qualitative (FIG. 22)
Procedure: FIG. 22. NGF expression in isolated human osteocytes. Osteocyte-enriched fractions of sequential human trabecular bone digests were cultured for 24 h either untreated (A), treated with rhTNFα (B), PPS (0.5 μg/mL) (C) or a combination of both (D), and then examined by confocal microscopy for NGF immunoreactivity. Control cells were also immunostained using an isotype-matched negative control primary antibody (E). Images are representative of data obtained from two individual donors. Scale bars in each image represent 100 μm.
(§1) Cell seeded in 8-well chamber slides and differentiated for 28 days or freshly digested from bone were either untreated or treated with rhTNFα (1 ng/mL), PPS (50 μg/mL; ‘PPS50’) or PPS50+rhTNFα. Following differentiation, medium was removed and all wells rinsed with PBS (pH 7.4, Gibco) a total of three times. Cells were then fixed with 100 μL of Histochoice (Sigma-Aldrich) tissue fixative for 1 hour at room temperature. After fixation, wells were rinsed twice with distilled H2O and stored at 4° C. until staining. Cells were blocked with 50 μL of blocking buffer (5% v/v normal rabbit serum in 1×PBS) for 20 minutes at room temperature in a humid chamber. Cells were then rinsed with wash buffer (0.1% v/v normal rabbit serum in PBS) three times. […]

MMP13 = MMP13 immunostaining / confocal microscopy of KOA osteocyte-like cultures; type: cell-based, human; conditions: KOA2 cells, rhTNFα + PPS 50 μg/mL (FIG. 21)
Procedure: FIG. 21. The effect of PPS treatment on basal and TNFα-induced MMP13 expression in human KOA osteocyte-like cultures. Confocal microscopy imaging of immunostaining of KOA2 cells untreated stained with isotype control primary antibody or mouse anti-human anti-MMP13 antibody (top row), or treated with rhTNFα alone or rhTNFα+PPS (50 μg/mL) and stained for MMP13 (green staining). All nuclei are stained with DAPI (blue). A) Isotype IgG control; B) Untreated; anti-MMP13; C) rhTNF-α-treated; anti-MMP13; and D) rhTNFa+PPS50; anti-MMP13.
as §1

In the case of Sodium Pentosan Polysulfate [PPS], the “NGF expression (immunostaining), combination of rhTNF-α and PPS” value (NGF; PPS 0.5 μg/mL + rhTNFα) is reported as “downregulated; also recorded: qualitatively less staining”, the “NGF expression (immunostaining), PPS alone vs control” value (NGF; PPS 0.5 μg/mL) is reported as “qualitatively greater” and the “inhibition of rhTNFα-induced MMP13 at the protein level (immunostaining)” value (MMP13) is reported as “confirmed”.
